The assay deals with sigma receptors in brain tissue. Description: In vitro binding: inhibition of (+)-[3H]3-PPP binding in rat whole brain membranes. As to conditions: 3 nM (+)-[3H]3-PPP. As to the method: Affinity of disclosed compounds for sigma receptors in brain tissue was ascertained by the degree of inhibition of binding of the sigma site radioligand, (+)-[^3 H]3-(3-hydroxphenyl)-N-(1-propyl)piperidine ((+)-[^3 H]3-PPP) in competition experiments in vitro. These experiments were conducted by the method of Largent et al. Proc. Nat. Acad. Sec. […] Brains were removed from Sprague-DawleyCD male rats (Charles River Breeding Laboratories, Inc., Wilmington, Mass.; 200-300 g) following decapitation. Whole brain was homogenized in 25 volumes (v/w) of ice-cold 50 mM Tris (tris(hydroxymethyl)amino methane) hydrochloride pH 7.7 buffer using a Polytron PT-10 homogenizer. The pellet resulting from centrifugation of the homogenate at 45,000×g for 10 minutes at 0°-5° was washed twice by resuspension in the same volume of fresh buffer and recentrifugation. The final pellet was dispersed in 50 mM Tris hydrochloride pH 8.0 buffer (50 ml/g of original weight; "tissue preparation"). The incubation mixture in triplicate was comprised of 0.05 ml blank (10 μM pentazocine for nonspecific binding), test compound or vehicle; 0.20 ml (+)-[^3 H]3-PPP (110 Ci/mmol, NEN® DuPont; 3 nM final concentration) in 50 mM Tris hydrochloride pH 8.0 buffer; and 0.75 ml tissue preparation. The latter was added just prior to incubation of the mixture at 25° C. for 90 minutes. Afterwards, the mixture was diluted with 2.5 ml 10 mM Tris hydrochloride pH 7.7 buffer and filtered under vacuum through a Whatman GF/B glass-fiber filter (pretreated with 1% polyethyleneimine) in a Brandell cell harvester to recover the membranes. The filter was washed twice with the diluent buffer and placed in 10 ml Aquasol-2 (NEN® DuPont Co.) for determination of bound radioactivity in a liquid scintillation counter.

As a reminder, the IC50 is the concentration that inhibits the measured activity by half. Molecule `CN[C@H]1CC[C@@H](c2ccc(Cl)c(C(F)(F)F)c2)c2ccccc21` [(+)-1S, 4S 3-CF3,4-Cl NHCH3, Cis(1S) (4S)-N-methyl-4-(3-trifluoromethyl, 4-chloro-phenyl)-1,2,3,4-tetrahydro-1-naphthalenamine] came in with an IC50 (Table 2, enantiomers) of 17 nM.
The molecule `CN(C)[C@H]1CC[C@@H](c2ccc(Cl)c(Cl)c2)c2ccccc21` (relative stereo) [(±)-cis 3,4-diCl N(CH3)2] displayed an IC50 (Table 1, racemates) of 44 nM.
Molecule `CN[C@H]1CC[C@H](c2ccc(Br)cc2)c2ccccc21` (relative stereo) [(±)-trans 4-Br NHCH3] showed a half-inhibitory concentration (IC50) (Table 1, racemates) of 85 nM.
In turn, `CN[C@H]1CC[C@H](c2ccc(F)cc2)c2ccccc21` (relative stereo) [(±)-trans 4-F NHCH3] had an IC50 (Table 1, racemates) of 66 nM. This IC50 and that of the molecule before are within 1.5-fold of each other.
For `CN[C@H]1CC[C@@H](c2ccc(C(F)(F)F)cc2)c2ccccc21` (relative stereo) [(±)-cis 4-CF3 NHCH3], for the setting “Table 1, racemates”, the 50% inhibitory concentration (IC50) was 5.9 nM.
Take `CN[C@H]1CC[C@H](c2cccc(C(F)(F)F)c2)c2ccccc21` (relative stereo) [(±)-trans 3-CF3 NHCH3]: for the setting “Table 1, racemates”, the half-maximal inhibitory concentration (IC50) turned out to be 16 nM.
Where the note is “Table 1, racemates”, `CN[C@H]1CC[C@@H](c2ccc(Cl)cc2)c2ccccc21` (relative stereo) [(±)-cis 4-Cl NHCH3] came in with a half-maximal inhibitory concentration (IC50) of 33 nM.
On to `CN[C@H]1CC[C@@H](c2ccc(Cl)cc2)c2ccccc21` [(+)-1S, 4S 4-Cl NHCH3, Cis(1S) (4S)-N-methyl-4-(4-chlorophenyl)-1,2,3,4-tetrahydro-1-naphthalenamine], for which the IC50 (Table 2, enantiomers) came to 8.7 nM.
As for `CN[C@H]1CC[C@@H](c2ccc(Cl)cc2Cl)c2ccccc21` (relative stereo) [(±)-cis 2,4-diCl NHCH3], the IC50 (Table 1, racemates) was determined as 29 nM.
The molecule `CN[C@H]1CC[C@@H](c2ccc(Br)cc2)c2ccccc21` (relative stereo) [(±)-cis 4-Br NHCH3] yielded an IC50 (Table 1, racemates) of 13 nM.
For the molecule `N[C@H]1CC[C@@H](c2ccc(Cl)c(Cl)c2)c2ccccc21` [(+)-1S, 4S 3,4-diCl NH2, Cis(1S) (4S)-amino-4-(3,4-dichlorophenyl)-1,2,3,4-tetrahydro-1-naphthalenamine], for the setting “Table 2, enantiomers”, the half-inhibitory concentration (IC50) is 58 nM. That is a double-digit nanomolar value.
Regarding `CN[C@H]1CC[C@H](c2ccc(Cl)c(C(F)(F)F)c2)c2ccccc21` (relative stereo) [(±)-trans 3-CF3,4-Cl NHCH3], the IC50 (Table 1, racemates) stood at 31 nM.
As to `CN[C@H]1CC[C@@H](c2ccc(Cl)c(C(F)(F)F)c2)c2ccccc21` (relative stereo) [(±)-cis 3-CF3,4-Cl NHCH3], where the note is “Table 1, racemates”, the IC50 is 11 nM.
In turn, `CN(C)[C@H]1CC[C@H](c2ccc(Cl)c(Cl)c2)c2ccccc21` (relative stereo) [(±)-trans 3,4-diCl N(CH3)2] gave a half-maximal inhibitory concentration (IC50) (Table 1, racemates) of 30 nM.
Where the note is “Table 2, enantiomers”, `CN(C)[C@H]1CC[C@@H](c2ccc(Cl)c(Cl)c2)c2ccccc21` [(+)-1S, 4S 3,4-diCl N(CH3)2, Cis(1S) (4S)-N,N-dimethyl-4-(3,4-dichlorophenyl)-1,2,3,4-tetrahydro-1-naphthalenamine] yielded an IC50 of 28 nM.
`CN[C@H]1CC[C@H](c2ccc(C(F)(F)F)cc2)c2ccccc21` (relative stereo) [(±)-trans 4-CF3 NHCH3] came in with an IC50 (Table 1, racemates) of 39 nM.
In turn, `CN[C@H]1CC[C@H](c2ccc(Cl)cc2)c2ccccc21` (relative stereo) [(±)-trans 4-Cl NHCH3] came in with an IC50 (Table 1, racemates) of 75 nM.
